In patent US11730720B2, “ALK5 inhibitors” (THERAVANCE BIOPHARMA R&D IP, LLC, priority 2018, dated 2023):

Tests used:
[1] = target: T1, recombinant human ALK5 (TGF-βR1) protein (Homo sapiens, UniProt P36897); assay: Biochemical ALK5 (TGF-βR1) assay to measure pKi (LANCE Ultra ULight kinase assay); settings: apparent pKi, converted from pIC50 using the Cheng-Prusoff equation
T1 construct: purchased Life Technologies PR9075A
T1 sequence (P36897 34-503): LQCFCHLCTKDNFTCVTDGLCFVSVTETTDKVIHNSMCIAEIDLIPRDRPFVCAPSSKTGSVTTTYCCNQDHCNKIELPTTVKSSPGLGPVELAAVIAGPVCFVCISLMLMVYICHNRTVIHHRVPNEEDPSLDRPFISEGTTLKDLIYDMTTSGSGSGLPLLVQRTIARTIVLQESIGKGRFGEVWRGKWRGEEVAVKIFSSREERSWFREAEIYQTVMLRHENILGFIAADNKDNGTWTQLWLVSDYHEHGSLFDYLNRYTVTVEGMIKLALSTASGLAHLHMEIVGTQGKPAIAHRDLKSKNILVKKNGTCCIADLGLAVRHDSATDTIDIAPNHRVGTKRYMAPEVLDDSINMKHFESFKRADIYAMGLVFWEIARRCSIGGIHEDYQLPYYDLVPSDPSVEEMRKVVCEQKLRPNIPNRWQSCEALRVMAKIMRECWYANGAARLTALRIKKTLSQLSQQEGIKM
Method in brief: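 TR-FRET kinase format: compound dose range 10 μM–25 pM equilibrated 60 min with human ALK5 and ULight-labelled topoisomerase 2α peptide in HEPES/MgCl2 buffer pH 7.5 with DTT. Reaction started with ATP (125 μM stock, 5× final), 60 min at 37° C, stopped with EDTA/Eu-anti-phospho antibody; pKi derived from pIC50 via Cheng-Prusoff.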

[2] = test system: TGF-β-stimulated SMAD3 phosphorylation in BEAS-2B cells; assay: Cellular ALK5 potency assay, inhibition of TGF-β stimulated pSMAD3 formation in BEAS-2B cells; assay type: cell-based; settings: Homo sapiens, inhibition of TGF-β (10 ng/mL) stimulated pSMAD3 formation, 1 hour compound incubation, read-out: BEAS2B pIC50 (converted)
Method in brief: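 Phospho-SMAD3 was quantified by AlphaLISA in lysates of human lung epithelial BEAS-2B cells. Compound was added 1 h (37 °C, HEPES/BSA-supplemented HBSS) before a 30 min challenge with 10 ng/mL TGF-β. Values are pIC50 relative to stimulated cells without compound.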

Row | Ki [1] [nM] | SMILES | IC50 [2] [nM]
1 | 3.98 to 31.6 | COCc1cccc(-c2n[nH]cc2-c2ccc3ncc(NCCN4CCN(C(C)C)CC4)cc3n2)c1 [Compound 14-17, N-[2-(4-isopropylpiperazin-1-yl)ethyl]-6-[3-[3-(methoxymethyl)phenyl]-1H-pyrazol-4-yl]-1,5-naphthyridin-3-amine] | 200 to 1260
2 | 0.0398 to 0.316 | CNCCn1cc(-c2cnc3ccc(-c4nc[nH]c4-c4ccc(F)c(F)c4)cc3c2)cn1 [Compound 23-2, 2-[4-[6-[5-(3,4-difluorophenyl)-1H-imidazol-4-yl]-3-quinolyl]pyrazol-1-yl]-N-methyl-ethanamine] | 25.1 to 158

Further lines, the compound ahead of its results:

Row | SMILES | Ki [1] [nM] | IC50 [2] [nM]
3 | CN1CCN(C2CCN(c3cnc4ccc(-c5c[nH]nc5-c5cc(Cl)ccc5F)nc4c3)CC2)CC1 [Compound 1-83, 2-[3-(5-chloro-2-fluoro-phenyl)-1H-pyrazol-4-yl]-7-[4-(4-methylpiperazin-1-yl)-1-piperidyl]-1,5-naphthyridine] | ≤ 0.0316 | ≤ 20
4 | Fc1ccc(Cl)cc1-c1n[nH]cc1-c1ccc2ncc(N3CC(N4CCCCC4)C3)cc2n1 [Compound 1-40, 2-[3-(5-chloro-2-fluoro-phenyl)-1H-pyrazol-4-yl]-7-[3-(1-piperidyl)azetidin-1-yl]-1,5-naphthyridine] | 0.0398 to 0.316 | 25.1 to 158
5 | CN(C)C1CC=C(c2cnc3ccc(-c4c[nH]nc4-c4ccc(F)c(F)c4)nc3c2)CC1 (stereo not shown) [Compound 8-25, 4-[6-[3-(3,4-difluorophenyl)-1H-pyrazol-4-yl]-1,5-naphthyridin-3-yl]-N,N-dimethyl-cyclohex-3-en-1-amine] | 0.0398 to 0.316 | 25.1 to 158
